The text below walks through data of patent US10543198B2 (Celgene Quanticel Research, Inc., priority 2014, dated 2020).

For orientation: IC50 means the concentration needed to halve the response being measured.

The target of assay [1] is full-length human LSD1 (Homo sapiens (Human), UniProt O60341). As to the kind of experiment: In Vitro Enzyme Inhibition Assay - LSD-1 (TR-FRET). The assay is classed as biochemical. The settings on record: 0.1 nM LSD1, H3K4me1-biotin peptide. The procedure:
This assay determines the ability of a test compound to inhibit LSD1 demethylase activity.
The enzymatic assay of LSD1 activity is based on Time Resolved-Fluorescence Resonance Energy Transfer (TR-FRET) detection.
The ability of the compounds disclosed herein to inhibit LSD1 activity was quantified and the respective IC50 value was determined.

The subject of assay [2] is THP-1 (AML) cells. As to the kind of experiment: LSD1 CD11b Cellular Assay (flow cytometry). The assay is classed as cell-based. Conditions: Homo sapiens, 96 h; CD11b expression in THP-1 cells, 4 days incubation. The procedure: To analyze LSD1 inhibitor efficacy in cells, a CD11b flow cytometry assay was performed. LSD1 inhibition induces CD11b expression in THP-1 (AML) cells which can be measured by flow cytometry. […] LSD1 test compounds were serially diluted in DMSO. The dilutions were added to each well accordingly to a final concentration of 0.2% DMSO. The cells were incubated at 37 degrees Celsius in 5% CO2 for 4 days. 250 μL of each well was transferred to a well in a 96 well round bottom plate. The plate was centrifuged at 1200 rpm at 4 degrees Celsius in a Beckman Coulter Alegra 6KR centrifuge for 5 minutes. The media was removed leaving the cells at the bottom of the wells. The cells were washed in 100 μL cold HBSS (Hank's Balanced Salt Solution) plus 2% BSA (Bovine Serum Albumin) solution and centrifuged at 1200 rpm at 4 degrees Celsius for 5 minutes. The wash was removed. […] The cells were centrifuged and washed two times in 100 μl HBSS plus 2% BSA. After the final spin the cells were resuspended in 100 μL HBSS plus 2% BSA containing 1 ug/mL DAPI (4′,6-diamidino-2-phenylindole). The cells were then analyzed by flow cytometry in a BD FACSAria machine. Cells were analyzed for CD11b expression. The percent of CD11b expressing cells for each inhibitor concentration was used to determine an IC50 curve for each compound analyzed.

For the compound `CCn1cnc2cc(-c3ncc(N4CCC(N)CC4)nc3-c3ccc(C#N)c(F)c3)c(F)c(F)c21` [Example 74, 4-[6-(4-aminopiperidin-1-yl)-3-(1-ethyl-6,7-difluorobenzimidazol-5-yl)pyrazin-2-yl]-2-fluorobenzonitrile], the IC50 in assay [1] and in assay [2] was below 100 nM in each case.

`Cn1cnc2cc(-c3ncc(N4CCC(N)CC4)nc3-c3ccc(C#N)c(F)c3)c(F)c(F)c21` [Example 75, 4-[6-(4-aminopiperidin-1-yl)-3-(6,7-difluoro-1-methylbenzimidazol-5-yl)pyrazin-2-yl]-2-fluorobenzonitrile]: the IC50 in assay [1] and in assay [2] was below 100 nM throughout.
